Legend:
[1] = tested on: Plasmodium falciparum 3D7; design: method as in PMID 28901329; conditions: cited from earlier work
cancer cell lines = tested on: cancer cell lines; design: method as in PMID 28901329; conditions: cited from earlier work
[2] = tested on: human malignant melanoma cell line A-375; assay: CellTiterBlue cell viability assay, malignant melanoma cell line A-375; assay type: cell-based; conditions: for IC50: Homo sapiens, A-375 cells, 24 h treatment, CellTiterBlue, read-out: IC50 against A-375 cells
Experimental: (§1) The crude extracts were initially tested in vitro against 5 human cancer cell lines: colorectal adenocarcinoma cell line HT-29 (DSMZ, Braunschweig, Germany), malignant melanoma cell line A-375 (CLS, Eppelheim, Germany), colon cancer cell line HCT-116 (DSMZ), lung carcinoma cell line A-549 (CLS, Eppelheim, Germany), human breast cancer line MB-231 (CLS), and the non-cancerous human keratinocyte line HaCaT (CLS) at a concentration of 100 µg/mL. The antitumoral activity of the crude extracts was evaluated by monitoring the metabolic activity using the CellTiterBlue Cell Viability Assay (Promega, Mannheim, Germany). HT-29 and HaCaT cells were cultivated in RPMI medium, A-549 and MB-231 cells in DMEM: Ham’s F12 medium (1:1) supplemented with 15 mM HEPES and A-375 and HCT-116 cells in DMEM medium supplemented with 4.5 g/L D-Glucose and 110 mg/L sodium pyruvate. All media were supplemented with L-Glutamine, 10% fetal bovine serum, 100 U/mL penicillin, and […] streptomycin. The cultures were maintained at 37 °C under a humidified atmosphere and 5% CO2. The cell lines were transferred every 3 or 4 days. For experimental procedure, the cells were seeded in 96 well plates at a concentration of 10,000 cells per well. A stock solution of 40 mg/mL in DMSO was prepared of each extract. After 24 h incubation, the medium was removed from the cells and 100 µL fresh medium containing the test samples was added. Each sample was prepared in duplicate once. Doxorubicin as a standard therapeutic drug was used as positive control, 0.5% DMSO and growth media were used as controls. Following compound addition, plates were cultured at 37 °C for 24 h. Afterwards, the assay was performed according to the manufacturer’s instructions and measured using the microplate reader Tecan Infinite M200 at excitation 560 nm and emission of 590 nm. For determination of IC50 values, a dilution series of the extracts was prepared and tested, as described before for the crude extract.

[3] = tested on: non-cancerous human keratinocyte cell line HaCaT; assay: CellTiterBlue cell viability assay, non-cancerous keratinocyte line HaCaT (general toxicity); assay type: cell-based; conditions: HaCaT cells, 24 h treatment, read-out: IC50 against HaCaT cells
Experimental: as §1

Molecule | antimalarial activity [1] | activity against cancer cell lines (cancer cell lines) | selectivity index (IC50 value against HaCaT cells / IC50 value against A-375 cells) ([2]; HaCaT vs A-375) | IC50 [2] | IC50 [3]
CC(=O)/C=C/[C@H]1[C@H](C(=O)N(C)[C@H](CO)C(=O)O)C(=O)[C@@]2(C)[C@@H]1C(C)=C[C@H]1C[C@@H](C)CC[C@@H]12 [wakodecaline B] | moderate antimalarial activity | inactive |  |  | 
wakodecaline A | moderate antimalarial activity | inactive |  |  | 
CC1=C[C@H]2C[C@@H](C)CC[C@@H]2[C@@]2(C)C(=O)[C@@]3(C(=O)[C@@H](CO)N(C)C3=O)[C@H](/C=C/[C@@H](C)O)[C@@H]12 [Compound 2, Pyrenosetin B] |  |  | around 5.6 | 6.3 µM | 35 µM
CC(=O)/C=C/[C@@H]1[C@H]2C(C)=C[C@H]3C[C@@H](C)CC[C@@H]3[C@@]2(C)C(=O)[C@@]12C(=O)[C@@H](CO)N(C)C2=O [Compound 3, Pyrenosetin C] |  |  |  | 140 µM | 143 µM
C/C=C/C=C/[C@H]1C(C)=C[C@H]2C[C@@H](C)CC[C@@H]2[C@@]1(C)/C(O)=C1/C(=O)[C@@H](CO)N(C)C1=O [Compound 4, Phomasetin] |  |  |  | 37.3 µM | 45 µM
COc1cccc2c1C(=O)c1c(O)c3c(c(O)c1C2=O)C[C@@](O)(C(=O)CO)C[C@@H]3O[C@H]1C[C@H](N)[C@H](O)[C@H](C)O1 [Doxorubicin, reference compound] |  |  |  | 0.6 µM | 22.1 µM
CC1=CC2CC(C)CCC2C2(C)C(=O)C3(C(=O)C(CO)N(C)C3=O)C(C=CC(C)O)C12 (stereo not drawn) [Compound 1, Pyrenosetin A] |  |  |  | 2.8 µM | 4.2 µM
